Reference: DBAASP
Converted amounts (≈) assume the structure as drawn. “And” between values parts separate entries of the source, which are not always exact repeats. Identical values can stand only once. Blank lines part the entries; values can stand above or below the molecule they belong to.

Tests used:
Assay in all cases: ≥ marks a high value that may be exact or a test limit, other limits are often not marked, values filed in µg/mL are converted to µM
[1] = system: Escherichia coli ATCC 25922
[2] = system: Klebsiella pneumoniae ATCC 13883
[3] = system: Salmonella enterica subsp. enterica serovar Typhimurium ATCC 14028
[4] = system: Salmonella enterica subsp. enterica serovar Enteritidis
[5] = system: Streptococcus equinus
[6] = system: Pseudomonas aeruginosa ATCC 27853
[7] = system: Klebsiella pneumoniae
[8] = system: Staphylococcus aureus ATCC 25923
[9] = system: Candida parapsilosis
[10] = system: Candida albicans
[11] = system: Serratia marcescens ATCC 8100
[12] = system: Rhodotorula mucilaginosa
[13] = system: Escherichia coli ML-35
[14] = system: Staphylococcus epidermidis ATCC 12228
[15] = system: Staphylococcus aureus
[16] = system: Candida tropicalis
[17] = system: Bacillus megaterium Bm11
[18] = system: Bacillus subtilis KCCM 11495
[19] = system: Escherichia coli KCCM 11569
[20] = system: Pseudomonas aeruginosa ATCC 9027
[21] = system: Escherichia coli KACC 1039
[22] = system: Candida albicans ATCC 90028
[23] = system: Bacillus subtilis CCT 2471
[24] = system: Staphylococcus aureus KACC 10196
[25] = system: Klebsiella pneumoniae KCTC 2242
[26] = system: Enterococcus faecalis KACC 11304
[27] = system: Pseudomonas aeruginosa KACC 10259
[28] = system: Enterobacter cloacae ATCC 23355
[29] = system: Staphylococcus aureus USA 300
[30] = system: Staphylococcus saprophyticus
[31] = system: Staphylococcus aureus ATCC 6535
[32] = system: Bacillus subtilis KACC 10196
[33] = system: Candida albicans KACC 30071
[34] = system: Escherichia coli CCT 1371
[35] = system: Staphylococcus aureus USA 100
[36] = system: Escherichia coli D21
[37] = system: Acinetobacter baumannii
[38] = system: Staphylococcus aureus Cowan 1
[39] = system: Yersinia pseudotuberculosis YPIII
[40] = system: Staphylococcus aureus ATCC 29213
[41] = system: Escherichia coli O111:B4
[42] = system: Corynebacterium jeikeium ATCC BAA-949
[43] = system: Enterococcus faecalis
[44] = system: Acinetobacter baumannii ATCC 19606
[45] = system: Staphylococcus capitis 1
[46] = system: Trypanosoma cruzi
[47] = system: Escherichia coli DSM 30083
[48] = system: Bacillus subtilis DSM 402

MIC [1]: 3.92 µM (≈ 14 µg/mL) | MIC [2]: 7.97 µM (≈ 28.5 µg/mL) | MIC [3]: 31.9 µM (≈ 114 µg/mL) | MIC [4]: 31.9 µM (≈ 114 µg/mL) | MIC [5]: 31.9 µM (≈ 114 µg/mL) | MIC [6]: > 31.9 µM | MIC [7]: 31.9 µM (≈ 114 µg/mL) | MIC [8]: 15.9 µM (≈ 57 µg/mL) | MIC [9]: 31.9 µM (≈ 114 µg/mL) | MIC [10]: > 31.9 µM | MIC [11]: 7.97 µM (≈ 28.5 µg/mL) | MIC [12]: 31.9 µM and 15.9 µM | MIC [13]: 3.92 µM (≈ 14 µg/mL) | MIC [14]: 7.97 µM (≈ 28.5 µg/mL) | MIC [15]: 31.9 µM (≈ 114 µg/mL) | MIC [16]: 31.9 µM (≈ 114 µg/mL) | MIC [17]: 3.92 µM (≈ 14 µg/mL)
Compound: CC(C)C[C@H](NC(=O)[C@H](CCC(N)=O)NC(=O)[C@H](CCC(=O)O)NC(=O)[C@H](CC(C)C)NC(=O)[C@H](Cc1ccccc1)NC(=O)[C@H](CCC(=O)O)NC(=O)[C@H](CCC(N)=O)NC(=O)[C@H](Cc1ccccc1)NC(=O)[C@H](CO)NC(=O)[C@H](CC(C)C)NC(=O)[C@@H]1CCCN1C(=O)[C@H](Cc1ccccc1)NC(=O)[C@H](Cc1c[nH]c2ccccc12)NC(=O)[C@H](Cc1cnc[nH]1)NC(=O)[C@H](CCCN=C(N)N)NC(=O)[C@H](CCCN=C(N)N)NC(=O)[C@@H](N)CCCCN)C(=O)N[C@@H](CCCN=C(N)N)C(=O)N[C@@H](CCCN=C(N)N)C(=O)N[C@@H](Cc1ccccc1)C(=O)N[C@@H](CCCN=C(N)N)C(=O)N[C@@H](CC(=O)O)C(=O)N[C@@H](CCC(N)=O)C(=O)N[C@@H](CC(C)C)C(=O)N1CCC[C@H]1C(=O)N[C@@H](Cc1ccccc1)C(=O)N1CCC[C@H]1C(=O)O [KRRHWFPLSFQEFLEQLRRFRDQLPFP]

MIC [18]: ≥ 40.3 µM | MIC [19]: ≥ 40.3 µM
Compound: CC(C)C[C@H](NC(=O)CNC(=O)[C@H](Cc1cnc[nH]1)NC(=O)[C@H](Cc1cnc[nH]1)NC(=O)[C@H](CC(C)C)NC(=O)[C@H](CC(C)C)NC(=O)[C@H](C)NC(=O)[C@H](CC(N)=O)NC(=O)[C@H](CC(C)C)NC(=O)[C@@H](N)Cc1c[nH]c2ccccc12)C(=O)N[C@@H](CC(N)=O)C(=O)N[C@@H](CS)C(=O)N[C@@H](C)C(=O)N[C@@H](CCCCN)C(N)=O [WLNALLHHGLNCAK]

MIC [20]: 50 µM (≈ 47.7 µg/mL) | MIC [21]: 8 µM (≈ 7.63 µg/mL) | MIC [2]: 10.5 µM (≈ 9.99 µg/mL) | MIC [22]: ≥ 50 µM | MIC [23]: 10.5 µM (≈ 9.99 µg/mL) | MIC [24]: 16 µM (≈ 15.3 µg/mL) | MIC [6]: 10.5 µM (≈ 9.99 µg/mL) | MIC [25]: 8 µM (≈ 7.63 µg/mL) | MIC [26]: 16 µM (≈ 15.3 µg/mL) | MIC [10]: 2.62 µM (≈ 2.5 µg/mL) | MIC [27]: 8 µM (≈ 7.63 µg/mL) | MIC [28]: 10.5 µM (≈ 9.99 µg/mL) | MIC [29]: ≥ 50 µM | MIC [30]: 15.7 µM (≈ 15 µg/mL) | MIC [31]: 10.5 µM (≈ 9.99 µg/mL) | MIC [32]: 4 µM (≈ 3.81 µg/mL) | MIC [33]: 16 µM (≈ 15.3 µg/mL) | MIC [34]: 2.62 µM (≈ 2.5 µg/mL) | MIC [35]: ≥ 50 µM
Compound: CC[C@H](C)[C@H](NC(=O)[C@H](CO)NC(=O)[C@@H](NC(=O)[C@H](CCCCN)NC(=O)[C@H](Cc1ccccc1)NC(=O)[C@@H]1CCCN1)[C@@H](C)CC)C(=O)N[C@@H](Cc1cnc[nH]1)C(=O)N[C@@H](CC(C)C)C(N)=O [PFKISIHL]

Compound: CC[C@H](C)[C@H](N)C(=O)N[C@H](C(=O)NCC(=O)N1CCC[C@H]1C(=O)N[C@H](C(=O)N[C@@H](CC(C)C)C(=O)NCC(=O)N[C@@H](CC(C)C)C(=O)N[C@H](C(=O)NCC(=O)N[C@@H](CO)C(=O)N[C@@H](C)C(=O)N[C@@H](CC(C)C)C(=O)NCC(=O)NCC(=O)N[C@@H](CC(C)C)C(=O)N[C@@H](CC(C)C)C(=O)N[C@@H](CCCCN)C(=O)N[C@@H](CCCCN)C(=O)N[C@H](C(N)=O)[C@@H](C)CC)C(C)C)C(C)C)[C@@H](C)CC [IIGPVLGLVGSALGGLLKKI]
MIC [36]: ≥ 50 µM | MIC [1]: > 50 µM | MIC [37]: ≥ 50 µM | MIC [38]: 12.5 µM (≈ 24 µg/mL) | MIC [6]: > 50 µM | MIC [39]: 12.5 µM (≈ 24 µg/mL) | MIC [40]: 12.5 µM (≈ 24 µg/mL) | MIC [41]: ≥ 50 µM | MIC [14]: 12.5 µM (≈ 24 µg/mL) | MIC [42]: 8 µM (≈ 15.3 µg/mL) | MIC [43]: ≥ 50 µM | MIC [44]: 12.5 µM (≈ 24 µg/mL) | MIC [45]: 12.5 µM (≈ 24 µg/mL)

MIC [46]: 14.2 µM (≈ 30 µg/mL)
Compound: CC[C@H](C)[C@H](NC(=O)[C@H](C)NC(=O)[C@H](Cc1cnc[nH]1)NC(=O)[C@@H]1CCCN1C(=O)[C@@H](NC(=O)[C@H](CC(C)C)NC(=O)[C@H](CO)NC(=O)[C@H](CC(C)C)NC(=O)[C@@H](N)Cc1ccccc1)[C@@H](C)CC)C(=O)N[C@@H](CC(N)=O)C(=O)N[C@@H](C)C(=O)N[C@H](C(=O)N[C@@H](CO)C(=O)N[C@H](C(=O)N[C@@H](CC(C)C)C(=O)N[C@H](C(=O)N[C@@H](Cc1cnc[nH]1)C(=O)N[C@@H](Cc1cnc[nH]1)C(=O)N[C@@H](CO)C(=O)NCC(N)=O)C(C)C)[C@@H](C)O)C(C)C [FLSLIPHAINAVSTLVHHSG]

MIC [47]: ≥ 45 µM | MIC [48]: ≥ 45 µM
Compound: CC(=O)N[C@@H](CCCN=C(N)N)C(=O)N[C@@H](Cc1c[nH]c2ccccc12)C(=O)N[C@@H](CCCN=C(N)N)C(=O)N[C@@H](Cc1c[nH]c2ccccc12)C(=O)N[C@@H](CCCN=C(N)N)C(=O)N[C@@H](Cc1c[nH]c2ccccc12)C(N)=O [RWRWRW]
